Laboratory results from ChEMBL document CHEMBL1201862, “PubChem BioAssay data set” (2004).
The source made the active and inactive calls.

Columns and labels:
[1] = reduction of Shn3 3'UTR-driven luciferase in osteoblasts – cell-based, Clone20 osteoblasts, firefly luciferase, cherry-picked, dose response (AID 624132); assay type: functional;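 note: firefly luciferase luminescence from reporter carrying the Shn3 3'UTR in osteoblasts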
[2] = loss of viability in HepG2 cells – cell-based, CellTiter-Glo, cherry-picked, cytotoxicity control for Shn3 inhibitor project, dose response (AID 624134); assay type: functional
[3] = non-specific 3'UTR reporter inhibition in Clone20-Shn3RL – cell-based, Renilla luciferase, cherry-picked, counter-screen for Shn3 inhibitor project, dose response (AID 624133); assay type: functional
[4] = molecular target: T1, Polyadenylate-binding protein 1 (Homo sapiens, UniProt P11940); experiment: MLLE binding blockers, Cy5 peptide tracer – biochemical, fluorescence polarization, Cy5-PAM2 peptide, secondary, miRNA deadenylation inhibitor project, dose response (AID 602260); assay type: functional; conditions: read-out: IC50_Mean
T1 sequence (P11940 whole entry, the tested form may be a part): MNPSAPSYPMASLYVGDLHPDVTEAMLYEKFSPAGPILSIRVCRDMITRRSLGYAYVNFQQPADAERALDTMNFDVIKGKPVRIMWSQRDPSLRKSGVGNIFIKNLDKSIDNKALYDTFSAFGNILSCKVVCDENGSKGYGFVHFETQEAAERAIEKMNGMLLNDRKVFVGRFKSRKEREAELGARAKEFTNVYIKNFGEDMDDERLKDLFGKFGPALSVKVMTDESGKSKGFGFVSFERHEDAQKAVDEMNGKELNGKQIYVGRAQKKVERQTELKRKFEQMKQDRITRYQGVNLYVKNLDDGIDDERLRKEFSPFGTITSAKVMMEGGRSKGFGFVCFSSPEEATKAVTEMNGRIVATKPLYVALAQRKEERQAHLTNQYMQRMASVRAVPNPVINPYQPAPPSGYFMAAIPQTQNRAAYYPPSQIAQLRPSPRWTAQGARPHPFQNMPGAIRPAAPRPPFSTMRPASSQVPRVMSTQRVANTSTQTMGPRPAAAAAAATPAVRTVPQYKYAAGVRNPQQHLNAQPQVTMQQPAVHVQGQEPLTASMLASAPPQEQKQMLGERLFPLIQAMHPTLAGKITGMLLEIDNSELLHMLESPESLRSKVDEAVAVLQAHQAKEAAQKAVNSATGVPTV

[5] = molecular target: T1, Polyadenylate-binding protein 1; experiment: MLLE domain peptide-binding blockers, IC50 – biochemical, fluorescence polarization, FITC-PAM2 peptide, dose response (AID 602259); assay type: functional; conditions: read-out: IC50_Mean
[6] = system: INS1; experiment: INS-1E survival protection against cytokine death – cell-based, luminescence, retest, dose response (AID 449756); assay type: functional; conditions: Rattus norvegicus;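 note: cell death triggered by IL-1 beta plus TNF-alpha plus IFN-gamma mixture; protective hits raise ATP signal compared with cytokine alone wells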
[7] = molecular target: T2, Leucine aminopeptidase (Plasmodium falciparum 3D7, UniProt Q8IL11); experiment: P. falciparum M17LAP inhibitors, primary screen, biochemical, fluorogenic H-Leu-NHMec substrate, 1536-well (AID 1619); assay type: functional
T2 sequence (Q8IL11 whole entry): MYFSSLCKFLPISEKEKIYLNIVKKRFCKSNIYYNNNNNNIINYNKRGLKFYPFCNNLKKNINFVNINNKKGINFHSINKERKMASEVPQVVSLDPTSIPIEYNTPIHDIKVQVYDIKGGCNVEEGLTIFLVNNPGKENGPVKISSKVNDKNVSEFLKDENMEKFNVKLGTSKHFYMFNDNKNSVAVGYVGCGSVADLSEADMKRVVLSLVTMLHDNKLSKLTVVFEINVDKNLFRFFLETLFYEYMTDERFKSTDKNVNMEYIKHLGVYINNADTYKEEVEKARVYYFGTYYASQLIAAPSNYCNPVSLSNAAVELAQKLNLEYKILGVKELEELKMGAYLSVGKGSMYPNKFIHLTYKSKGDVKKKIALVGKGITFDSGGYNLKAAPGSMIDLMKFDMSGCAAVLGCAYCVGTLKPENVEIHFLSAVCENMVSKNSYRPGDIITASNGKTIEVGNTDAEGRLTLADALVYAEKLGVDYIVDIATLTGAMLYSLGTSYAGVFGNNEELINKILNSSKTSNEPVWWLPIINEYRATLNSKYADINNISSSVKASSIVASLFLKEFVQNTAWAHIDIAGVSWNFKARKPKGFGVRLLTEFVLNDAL

[8] = molecular target: Genome polyprotein (dengue virus type 2, UniProt P29990); experiment: flavivirus cap methylation enzyme inhibition – biochemical, confirmation dose response, primary screen (AID 588689); assay type: functional
Sequence of Genome polyprotein (P29990 2492-3391 limits assumed): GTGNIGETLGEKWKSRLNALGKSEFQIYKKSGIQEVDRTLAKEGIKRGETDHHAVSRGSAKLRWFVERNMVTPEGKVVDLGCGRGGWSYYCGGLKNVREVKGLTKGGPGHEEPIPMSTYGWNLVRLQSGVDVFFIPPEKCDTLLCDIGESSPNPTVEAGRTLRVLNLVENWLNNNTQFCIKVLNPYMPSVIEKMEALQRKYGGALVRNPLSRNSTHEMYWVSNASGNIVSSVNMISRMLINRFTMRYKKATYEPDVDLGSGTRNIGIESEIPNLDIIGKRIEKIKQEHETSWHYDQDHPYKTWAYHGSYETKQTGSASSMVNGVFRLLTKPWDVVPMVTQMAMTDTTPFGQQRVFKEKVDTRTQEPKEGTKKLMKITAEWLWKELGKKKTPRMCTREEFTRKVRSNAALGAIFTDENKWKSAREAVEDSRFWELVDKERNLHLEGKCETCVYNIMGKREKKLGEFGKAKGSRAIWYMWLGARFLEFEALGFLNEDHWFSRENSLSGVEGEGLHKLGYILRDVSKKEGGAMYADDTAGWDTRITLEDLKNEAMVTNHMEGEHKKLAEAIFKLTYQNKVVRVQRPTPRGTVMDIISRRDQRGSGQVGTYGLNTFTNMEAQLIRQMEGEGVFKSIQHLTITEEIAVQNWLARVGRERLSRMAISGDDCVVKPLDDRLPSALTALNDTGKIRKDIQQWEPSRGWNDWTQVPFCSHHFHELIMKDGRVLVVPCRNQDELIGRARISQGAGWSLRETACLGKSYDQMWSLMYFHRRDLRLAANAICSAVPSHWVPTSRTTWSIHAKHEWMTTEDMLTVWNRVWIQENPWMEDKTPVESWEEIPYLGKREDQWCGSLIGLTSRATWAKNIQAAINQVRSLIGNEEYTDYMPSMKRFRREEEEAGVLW

[9] = luciferase reporter signal suppression in cells – H4 neuroglioma cells, luminescence, dose response (AID 1990); assay type: functional, cell-based
[10] = Luminescence Cell-Based Dose Response HTS to Identify Inhibitors of 5'UTR Stem-Loop Driven Prion Protein mRNA Translation in H4 Neuroglioblastoma Cells. [Related pubchem assays: 1827 (Project Summary), 1813 (Primary HTS)]; assay type: functional
[11] = alpha-synuclein stem-loop luciferase translation blockers – H4 neuroglioma cells, luminescence, confirmation (AID 1988); assay type: functional, cell-based
[12] = system: Escherichia coli; experiment: microbe, parasite or virus in culture
[13] = molecular target: G-protein coupled receptor 55 (Homo sapiens, UniProt Q9Y2T6); experiment: selective activators of receptor GPR55 – imaging, U2OS cells, beta-arrestin-GFP redistribution, primary screen (AID 1961); assay type: functional
Sequence of G-protein coupled receptor 55 (Q9Y2T6 whole entry): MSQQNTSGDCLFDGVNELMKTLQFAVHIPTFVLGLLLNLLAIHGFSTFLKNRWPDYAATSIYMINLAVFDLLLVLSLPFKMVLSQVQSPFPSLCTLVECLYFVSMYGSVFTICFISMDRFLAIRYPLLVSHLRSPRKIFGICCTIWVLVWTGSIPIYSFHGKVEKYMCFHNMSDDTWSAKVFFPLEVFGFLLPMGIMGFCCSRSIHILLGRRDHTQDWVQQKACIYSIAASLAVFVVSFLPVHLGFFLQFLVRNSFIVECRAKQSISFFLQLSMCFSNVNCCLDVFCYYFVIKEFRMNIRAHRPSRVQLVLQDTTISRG

[14] = molecular target: T3, Heat shock factor protein 1 (Mus musculus, UniProt P38532); experiment: enhancement of HSF1-driven luciferase signal – cell-based, NIH3T3, luminescence, dose retest, confirmation (AID 435004); assay type: functional;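 note: stress induced by proteasome inhibitor MG132 added 30 min after compound; luciferase reporter driven by HSF1 response element in NIH3T3 cells; actives raise luminescence as potentiators of the MG132 stress response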
T3 sequence (P38532 whole entry): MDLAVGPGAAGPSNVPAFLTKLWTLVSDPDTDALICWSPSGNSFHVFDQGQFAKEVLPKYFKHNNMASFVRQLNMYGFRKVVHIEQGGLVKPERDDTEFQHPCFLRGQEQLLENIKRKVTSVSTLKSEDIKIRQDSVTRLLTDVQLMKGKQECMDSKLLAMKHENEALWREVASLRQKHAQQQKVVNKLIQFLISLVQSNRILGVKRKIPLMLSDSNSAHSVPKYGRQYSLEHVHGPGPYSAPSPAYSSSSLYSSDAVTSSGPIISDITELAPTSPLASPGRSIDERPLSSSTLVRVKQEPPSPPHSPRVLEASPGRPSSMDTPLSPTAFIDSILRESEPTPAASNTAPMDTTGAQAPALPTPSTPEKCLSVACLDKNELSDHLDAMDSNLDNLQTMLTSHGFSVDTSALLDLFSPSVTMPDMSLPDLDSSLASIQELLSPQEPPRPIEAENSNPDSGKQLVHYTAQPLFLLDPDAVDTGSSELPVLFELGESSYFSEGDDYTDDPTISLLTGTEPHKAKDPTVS

[15] = molecular target: T4, Replicative DNA helicase DnaB (Mycobacterium tuberculosis, UniProt P9WMR3); experiment: DnaB intein splicing inhibitors, dose response, biochemical, cell-free fluorescence (AID 449749); assay type: functional
T4 sequence (P9WMR3 whole entry): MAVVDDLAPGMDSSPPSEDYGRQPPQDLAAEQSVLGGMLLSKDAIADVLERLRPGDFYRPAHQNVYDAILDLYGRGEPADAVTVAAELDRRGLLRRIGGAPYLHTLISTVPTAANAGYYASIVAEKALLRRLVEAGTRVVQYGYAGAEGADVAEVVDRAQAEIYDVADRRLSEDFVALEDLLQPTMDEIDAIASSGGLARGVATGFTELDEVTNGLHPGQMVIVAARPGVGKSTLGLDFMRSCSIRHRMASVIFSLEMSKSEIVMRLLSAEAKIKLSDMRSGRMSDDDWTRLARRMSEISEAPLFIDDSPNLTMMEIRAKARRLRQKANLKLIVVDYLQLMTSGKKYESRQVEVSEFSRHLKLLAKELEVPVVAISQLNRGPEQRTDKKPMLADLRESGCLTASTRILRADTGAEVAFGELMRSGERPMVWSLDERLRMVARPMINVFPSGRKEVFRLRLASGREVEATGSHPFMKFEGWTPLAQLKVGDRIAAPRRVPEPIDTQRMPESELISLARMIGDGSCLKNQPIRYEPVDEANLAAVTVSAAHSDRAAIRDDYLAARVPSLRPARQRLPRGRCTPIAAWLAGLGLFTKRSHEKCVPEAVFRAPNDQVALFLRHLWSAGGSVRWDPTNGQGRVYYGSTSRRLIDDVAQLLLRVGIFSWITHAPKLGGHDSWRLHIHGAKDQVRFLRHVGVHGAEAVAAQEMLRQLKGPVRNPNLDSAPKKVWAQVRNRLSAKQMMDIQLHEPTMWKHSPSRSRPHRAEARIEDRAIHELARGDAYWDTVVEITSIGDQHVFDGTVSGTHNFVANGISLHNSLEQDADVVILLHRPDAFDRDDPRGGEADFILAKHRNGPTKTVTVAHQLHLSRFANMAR

[16] = molecular target: T5, Protein RecA (Mycobacterium tuberculosis, UniProt P9WHJ3); experiment: Fluorescence Cell-Free Homogeneous Dose Retest to Identify Inhibitors of RecA-Intein Splicing Activity. [Related pubchem assays (depositor defined):AID2097, AID2223, AID489010, AID492950]; assay type: functional
T5 sequence (P9WHJ3 whole entry): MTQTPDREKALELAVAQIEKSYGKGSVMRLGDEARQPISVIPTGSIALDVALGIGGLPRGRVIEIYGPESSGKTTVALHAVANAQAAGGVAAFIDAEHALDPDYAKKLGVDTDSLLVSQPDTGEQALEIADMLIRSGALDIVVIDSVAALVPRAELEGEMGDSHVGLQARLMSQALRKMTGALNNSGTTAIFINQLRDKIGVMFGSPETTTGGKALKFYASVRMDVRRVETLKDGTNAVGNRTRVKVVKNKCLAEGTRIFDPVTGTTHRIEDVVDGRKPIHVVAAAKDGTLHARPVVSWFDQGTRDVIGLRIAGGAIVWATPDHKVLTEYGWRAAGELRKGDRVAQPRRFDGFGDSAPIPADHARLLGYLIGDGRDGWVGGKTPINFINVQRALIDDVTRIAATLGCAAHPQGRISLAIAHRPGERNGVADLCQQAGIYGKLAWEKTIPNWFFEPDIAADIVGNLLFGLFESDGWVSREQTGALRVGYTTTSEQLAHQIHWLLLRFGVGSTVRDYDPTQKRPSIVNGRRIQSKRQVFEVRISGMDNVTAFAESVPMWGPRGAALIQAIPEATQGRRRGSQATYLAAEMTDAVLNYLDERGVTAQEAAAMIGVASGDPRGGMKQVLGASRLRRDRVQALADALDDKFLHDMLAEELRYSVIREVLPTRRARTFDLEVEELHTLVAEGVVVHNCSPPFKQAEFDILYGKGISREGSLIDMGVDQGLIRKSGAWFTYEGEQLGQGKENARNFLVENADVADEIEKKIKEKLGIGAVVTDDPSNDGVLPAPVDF

[17] = molecular target: Cytochrome P450 2C19 (Homo sapiens, UniProt P33261); experiment: Cytochrome panel assay with activity outcomes. Panel member name: p450-cyp2c19 Compounds with AC50 equal or less than 10 uM are considered active; assay type: functional; conditions: read-out: AC50
Sequence of Cytochrome P450 2C19 (P33261 whole entry): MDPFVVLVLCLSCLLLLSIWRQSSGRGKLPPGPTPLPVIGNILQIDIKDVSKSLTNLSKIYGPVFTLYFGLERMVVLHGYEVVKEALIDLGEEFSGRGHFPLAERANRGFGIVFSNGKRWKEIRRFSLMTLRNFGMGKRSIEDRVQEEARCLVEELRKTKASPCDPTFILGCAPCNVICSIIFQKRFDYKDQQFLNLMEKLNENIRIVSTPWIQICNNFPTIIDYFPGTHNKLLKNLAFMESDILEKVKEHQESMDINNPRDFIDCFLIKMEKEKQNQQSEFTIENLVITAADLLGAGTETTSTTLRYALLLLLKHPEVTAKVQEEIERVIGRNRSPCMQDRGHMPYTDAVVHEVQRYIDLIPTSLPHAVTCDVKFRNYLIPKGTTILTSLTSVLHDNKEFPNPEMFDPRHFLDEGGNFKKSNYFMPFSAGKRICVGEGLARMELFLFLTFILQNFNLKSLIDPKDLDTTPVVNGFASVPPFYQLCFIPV

[18] = molecular target: DNA (cytosine-5)-methyltransferase 1 (Homo sapiens, UniProt P26358); experiment: inhibition of DNA methylation by DNMT1 – biochemical, fluorescent molecular beacon, confirmation (AID 602386); assay type: functional
Sequence of DNA (cytosine-5)-methyltransferase 1 (P26358 whole entry): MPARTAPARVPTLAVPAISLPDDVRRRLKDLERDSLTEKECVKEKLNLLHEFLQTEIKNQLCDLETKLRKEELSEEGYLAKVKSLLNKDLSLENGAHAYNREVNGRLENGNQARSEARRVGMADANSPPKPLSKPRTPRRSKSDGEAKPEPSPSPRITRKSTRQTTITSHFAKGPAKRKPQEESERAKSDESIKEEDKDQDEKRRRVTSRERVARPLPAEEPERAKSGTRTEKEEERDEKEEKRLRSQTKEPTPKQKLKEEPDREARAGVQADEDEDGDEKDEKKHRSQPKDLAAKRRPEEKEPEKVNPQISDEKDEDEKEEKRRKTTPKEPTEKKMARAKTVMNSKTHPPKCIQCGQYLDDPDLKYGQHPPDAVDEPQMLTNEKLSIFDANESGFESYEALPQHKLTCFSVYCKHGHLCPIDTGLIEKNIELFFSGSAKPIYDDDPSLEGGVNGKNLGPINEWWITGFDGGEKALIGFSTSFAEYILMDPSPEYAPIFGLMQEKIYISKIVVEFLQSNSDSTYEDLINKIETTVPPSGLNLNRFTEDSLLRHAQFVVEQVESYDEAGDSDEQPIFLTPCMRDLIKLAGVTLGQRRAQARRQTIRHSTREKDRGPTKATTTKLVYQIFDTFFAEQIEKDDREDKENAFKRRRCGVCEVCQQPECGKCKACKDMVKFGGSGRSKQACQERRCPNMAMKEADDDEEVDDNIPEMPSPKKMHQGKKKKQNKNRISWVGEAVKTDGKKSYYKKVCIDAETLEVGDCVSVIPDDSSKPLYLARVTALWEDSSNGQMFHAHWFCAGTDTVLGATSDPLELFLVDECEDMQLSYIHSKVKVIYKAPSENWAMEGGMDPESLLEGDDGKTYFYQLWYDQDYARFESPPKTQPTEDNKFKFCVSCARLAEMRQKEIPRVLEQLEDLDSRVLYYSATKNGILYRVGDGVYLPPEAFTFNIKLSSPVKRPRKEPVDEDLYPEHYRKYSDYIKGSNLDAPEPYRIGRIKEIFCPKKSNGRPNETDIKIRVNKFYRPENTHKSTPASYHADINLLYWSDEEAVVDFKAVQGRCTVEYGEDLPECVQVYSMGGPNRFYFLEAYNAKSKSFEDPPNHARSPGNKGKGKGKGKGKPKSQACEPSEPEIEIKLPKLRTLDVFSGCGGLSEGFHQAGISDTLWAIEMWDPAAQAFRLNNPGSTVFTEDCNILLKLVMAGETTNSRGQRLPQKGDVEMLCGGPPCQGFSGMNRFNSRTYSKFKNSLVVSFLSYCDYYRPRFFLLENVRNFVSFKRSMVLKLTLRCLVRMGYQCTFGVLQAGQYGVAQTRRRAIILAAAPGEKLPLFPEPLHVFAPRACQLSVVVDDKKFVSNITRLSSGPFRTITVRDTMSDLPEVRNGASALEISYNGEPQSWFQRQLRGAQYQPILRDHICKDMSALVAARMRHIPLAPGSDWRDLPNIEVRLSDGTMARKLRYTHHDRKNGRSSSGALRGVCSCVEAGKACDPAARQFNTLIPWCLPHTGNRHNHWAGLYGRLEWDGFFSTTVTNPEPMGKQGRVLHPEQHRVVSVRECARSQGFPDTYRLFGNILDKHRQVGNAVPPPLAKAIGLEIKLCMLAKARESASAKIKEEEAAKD

Question: What does the source list for `O=C(Nc1cccc(Cl)c1Cl)C1CC(=O)N(c2ccc(Br)cc2)C1` (stereo not drawn)?
Answer: AC50 [1]: 8.23 µM (active); AC50 [2]: 38.4 µM (active); AC50 [3]: 9.56 µM (active)

Question: Which IC50 [4] does the source give for `COc1ccc(NC(=O)c2ccco2)cn1` here?
Answer: > 66 µM (inactive)

Question: And the IC50 [5]?
Answer: 34.1 µM (inactive)

Question: With `Cc1ccc(-n2ncc3c2CCCC3NC(=O)c2ocnc2C)cc1C` (stereo not drawn) as the compound, how does the AC50 [6] read?
Answer: 3.69 µM (active)

Question: And the AC50 [1]?
Answer: 1.29 µM (active)

Question: What about the AC50 [2] of the same compound?
Answer: 0.594 µM (active)

Question: And the AC50 [3]?
Answer: 3.35 µM (active)

Question: Which IC50 [7] does the source give for `CCCCCCSc1nc(O)c(C2OC(=O)c3c2ccc(OC)c3OC)c(=O)n1-c1ccccc1` (stereo not drawn) here?
Answer: 4.82 µM (active)

Question: What about the IC50 [8] of the same compound?
Answer: 30.2 µM (active)

Question: For `CC(C)(C)NC(=O)CSc1nc2ccc(NC(=O)CSc3nnnn3Cc3ccccc3)cc2s1`, which AC50 [1] is on record?
Answer: 3.26 µM (active)

Question: And the AC50 [2]?
Answer: 53 µM (active)

Question: What about the AC50 [3] of the same compound?
Answer: 6.81 µM (active)

Question: What does the source list for `CCOc1cc(C(=O)CSc2nnc(CNc3ccc(Cl)cc3)o2)ccc1NC(=O)CC`?
Answer: EC50 [9]: > 120 µM (not active); EC50 [10]: 23 µM (active); EC50 [11]: 7.28 µM (active); AC50 [1]: 7.73 µM (active); AC50 [2]: 29.5 µM (active); AC50 [3]: 36.5 µM (active)

Question: For `c1ccc(-n2c(SCC3CCCCO3)nnc2-c2cccs2)cc1` (stereo not drawn), which AC50 [12] is on record?
Answer: 24.4 µM (active)

Question: What does the source list for `COc1ccc2nc3cc(Cl)ccc3c(Nc3cc(C(C)C)c(O)cc3C)c2c1`?
Answer: EC50 [13]: 1 µM (active); EC50 [14]: 154 µM (active); AC50 [15]: > 380 µM (inactive); EC50 [16]: 0.318 µM (active)

Question: Which AC50 [12] does the source give for `CCCCN(CCCC)C(=O)c1cn(CC)c2cc(N3CCN(C)CC3)c(F)cc2c1=O` here?
Answer: 1.67 µM (active)

Question: Which results are given for `O=C(O)CSC1CC(=O)N(c2ccc(Cl)c(Cl)c2)C1=O` (stereo not drawn)?
Answer: IC50 [4]: > 66 µM (inactive); IC50 [5]: > 66 µM (inactive)

Question: Which AC50 [17] does the source give for `CCCCc1c(O)n(-c2ccccc2)c(SCCN(C)C)nc1=O` here?
Answer: 6.31 µM (inconclusive)

Question: What about the IC50 [4] of the same compound?
Answer: > 66 µM (inactive)

Question: What about the IC50 [5] of the same compound?
Answer: > 66 µM (inactive)

Question: Which AC50 [12] does the source give for `O=C(CCc1nc(O)c2ccccc2n1)OCC(=O)c1cccc(Cl)c1` here?
Answer: 41.4 µM (active)

Question: With `CCOC(=O)c1nn(-c2ccc(F)cc2)c(=O)cc1OCC(=O)Nc1ccc(OCC)cc1` as the compound, how does the IC50 [18] read?
Answer: > 99 µM (inactive)

Question: With `COc1ccc(S(=O)(=O)CC(=O)c2cc3cccc(C)c3oc2=O)cc1` as the compound, how does the IC50 [8] read?
Answer: 78.1 µM (active)

Question: With `CC(C)(CNC(=O)c1ccc(Cl)c(S(=O)(=O)N2CCc3ccccc3C2)c1)N1CCOCC1` as the compound, how does the AC50 [1] read?
Answer: 10.5 µM (active)

Question: What about the AC50 [2] of the same compound?
Answer: 2.14 µM (active)

Question: With `O=C(CCSc1nnc(-c2ccco2)o1)N1CCOCC1` as the compound, how does the AC50 [12] read?
Answer: 119 µM (active)

Question: What does the source list for `COc1ccc(CC(N)c2csc(NC(=O)Nc3ccc(C(C)C)cc3)n2)cc1` (stereo not drawn)?
Answer: AC50 [1]: 5.16 µM (active); AC50 [2]: 10.9 µM (active); AC50 [3]: 11.9 µM (active)

Question: For `Cc1[nH]n(-c2ccccc2)c(=O)c1C(c1cccc([N+](=O)[O-])c1)c1c(C)[nH]n(-c2ccccc2)c1=O`, which AC50 [15] is on record?
Answer: 3.28 µM (active)

Question: What about the EC50 [16] of the same compound?
Answer: 0.805 µM (active)

Question: What about the IC50 [8] of the same compound?
Answer: 52.9 µM (active)
